Where two headings read alike, the source gives them in different places.
Tests used:
[1] = Focused analysis of published BPH/LUTS studies: risk of abnormal ejaculation (anejaculation or significantly reduced ejaculate) with tamsulosin; assay type: in vivo, human
Description: To objectively determine an effective tamsulosin dose for treating premature ejaculation in patients without benign prostatic hypertrophy (BPH), a focused analysis of relevant well designed research studies that examined the abnormal ejaculation side effects of tamsulosin in BPH treatment based on combined data derived from multiple sources was conducted (www.accessdata.fda.gov, n.d.; Soliman et al, 2023; Shim et al., 2016). […] These studies focused on evaluating tamsulosin treatment outcomes in patients with BPH and lower urinary tract symptoms (LUTS). The analysis leveraged the identical mechanism of action of tamsulosin in both BPH/LUTS and premature ejaculation with respect to non-vascular smooth muscle relaxation in the genitourinary tract.
The graph plots administered tamsulosin quantity in mg on the x-axis against the calculated percentage risks of these dysfunctional sequelae on the y-axis.
Further, the FIG. 4 illustrates test data on calculated risk of abnormal or adverse ejaculatory side effects at different dosages. […] Quantitative data points are shown for tamsulosin at doses of 0.8 mg, 0.4 mg, and 0.2 mg taken either on a daily (QD) basis or every other day (QOD).

[2] = cited from earlier work
[3] = 0.2 mg QD, after 8 weeks (Zhang et al.); cited from earlier work
[4] = cited from earlier work; remark: listed apart in the source

risk of ejaculatory sequelae ([1]; 0.4 mg QOD (every other day), calculated from 5-fold reduction): 1.68%
drop in abnormal ejaculatory risk likelihood ([1]; dose reduction 0.4 mg QD to 0.2 mg QD): ~2.15 fold
reduction of projected abnormal ejaculatory risk ([1]; halving 0.8 mg QD to 0.4 mg QD): 53.6%
Structure (SMILES): CCOc1ccccc1OCCN[C@H](C)Cc1ccc(OC)c(S(N)(=O)=O)c1 [tamsulosin]
risk of abnormal or adverse ejaculatory side effects ([2]; 0.4 mg QD (daily)): 8.4%
abnormal ejaculatory risk reduction ([2]; 0.4 mg converted from QD to QOD (Soliman et al.)): 5 fold
risk of abnormal or adverse ejaculatory side effects ([2]; 0.8 mg QD (daily)): 18.1%
increase of intravaginal ejaculation latency time (IELT) [3]: 1.14 min
risk of adverse events [3]: 2.6%
efficacy for mild to moderate BPH symptoms ([4]; 0.2 mg QD (Shim et al.)): effective
therapeutic efficacy of QD dosing versus alternating day dosing ([4]; QD vs alternating day (Soliman et al.)): clinically similar

Reference: patent US20250302780A1, “METHOD OF TREATING PREMATURE EJACULATION IN HUMAN MALES WITHOUT SYMPTOMS OF BENIGN PROSTATIC HYPERTROPHY (BPH) USING TAMSULOSIN 0.2MG QOD WHICH DELAYS EJACULATION BY REDUCING THE RATE OF SECRETION AND TRANSPORT BY SEMINAL VESICLES AND PROSTATE IN THE GENITOURINARY TRACT” (Wustashire, priority 2024, published 2025)
